Reference: patent publication US11739074B2, “Ras inhibitors” (Revolution Medicines, Inc., priority 2019, dated 2023)
Read-outs that look alike come from different tables or passages of the source.

Tests used:
[1] = ester bond, 18-membered ring, EDCI/HOBt/DIEA, DCM, 25.0 °C
[2] = ester bond, EDCI/HOBt/DIPEA, DCM, 25.0 °C, 16.0 h
SW1573 = details: cited from earlier work
[3] = from CCn1c(-c2cccnc2[C@H](C)OC)c(CC(C)(C)CO)c2cc(-c3cc(C[C@H](NC(=O)OC(C)(C)C)C(=O)N4CCC[C@@H](C(=O)O)N4)cc(O[Si](C(C)C)(C(C)C)C(C)C)c3)ccc21, 15.3 mM

CCn1c(-c2cccnc2[C@H](C)OC)c2c3cc(ccc31)-c1cc(CF)cc(c1)C[C@H](NC(=O)OC(C)(C)C)C(=O)N1CCC[C@H](N1)C(=O)OCC(C)(C)C2
ring closure, isolated yield ([1]; from CCn1c(-c2cccnc2[C@H](C)OC)c(CC(C)(C)CO)c2cc(-c3cc(CF)cc(C[C@H](NC(=O)OC(C)(C)C)C(=O)N4CCC[C@@H](C(=O)O)N4)c3)ccc21, 23.7 mM): 65% | ring closure, yield of all isomers ([2]; from CCn1c(-c2cccnc2[C@H](C)OC)c(CC(C)(C)CO)c2cc(-c3cc(CF)cc(C[C@H](NC(=O)OC(C)(C)C)C(=O)N4CCC[C@@H](C(=O)O)N4)c3)ccc21, 23.73 mM): 65%

CCn1c(-c2cccnc2[C@H](C)OC)c2c3cc(ccc31)-c1cc(cc(C(F)F)c1)C[C@H](NC(=O)OC(C)(C)C)C(=O)N1CCC[C@H](N1)C(=O)OCC(C)(C)C2
ring closure, isolated yield ([1]; from CCn1c(-c2cccnc2[C@H](C)OC)c(CC(C)(C)CO)c2cc(-c3cc(C[C@H](NC(=O)OC(C)(C)C)C(=O)N4CCC[C@@H](C(=O)O)N4)cc(C(F)F)c3)ccc21, 21.0 mM): 71.6% | ring closure, yield of all isomers ([2]; from CCn1c(-c2cccnc2[C@H](C)OC)c(CC(C)(C)CO)c2cc(-c3cc(C[C@H](NC(=O)OC(C)(C)C)C(=O)N4CCC[C@@H](C(=O)O)N4)cc(C(F)F)c3)ccc21, 21.05 mM): 71.6%

CCn1c(-c2cccnc2[C@H](C)OC)c2c3cc(ccc31)-c1cc(cc(O[Si](C(C)C)(C(C)C)C(C)C)c1)C[C@H](NC(=O)OC(C)(C)C)C(=O)N1CCC[C@H](N1)C(=O)OCC(C)(C)C2
ring closure, isolated yield [1, 3]: 42% | ring closure, yield of all isomers [2, 3]: 42%

C=CC(=O)N1CCN(c2nc(=O)n(-c3c(C)ccnc3C(C)C)c3nc(-c4c(O)cccc4F)c(F)cc23)[C@@H](C)C1 [AMG510]
sensitivity of cell line SW1573 to inhibitor (SW1573): insensitive
